{
  "source": "patent US12233077B2",
  "about": "“Therapeutic treatment of breast cancer based on c-MAF status” (INBIOMOTION S.L., priority 2017, dated 2025)",
  "key": {"[1]": {"test_system": "breast cancer patients (AZURE trial)", "assay": "AZURE trial, zoledronic acid treatment effect according to MAF FISH stratification (Example 2)", "format": "in vivo, human", "settings": "for HR, risk of bone metastasis (anytime), zoledronic acid treatment / HR, bone metastatic event (anytime), zoledronic acid treatment: cutoff 2.5", "description": "The MAF FISH assay was produced by Kreatech for Inbiomotion based on Kreatech proprietary FISH technology. The probe set contains two probes: a MAF 16q23 probe plus a D16Z3 probe as control of chromosome 16 centromeric region. The assay was validated using a 16q23/D16Z3 probe (Inbiomotion) and Poseidon Tissue Digestion Kit from Kreatech. The scoring criteria were defined in a fact sheet and as follows: two FISH evaluable results per patient, and the highest value was selected. The scoring algorithm was as follows: 20 cells counted for target and centromere amplification, if the gene count is >2 and ≤3, then 50 cells were counted.\nAn overview of the AZURE clinical trial (Coleman et al N Eng J Med 2011; 365: 1396-1405 and AZURE Current Controlled Trials number, ISRCTN79831382 and ClinicalTrials.gov identifier NCT00072020) study design, whose patients were used to validate MAF, is provided in FIG. 2. MAF was validated in a retrospective analysis of the AZURE trial using patient tumor sample prospectively collected under regulatory compliant conditions. Out of the 3,360 patients recruited, 1,769 donated tumor tissue (52.4%). There were 13 TMAs (tissue micro array) (150 patient samples each) (1,769 patients). There were 4 replicas of each TMA using different tissue cores (6,326 (4× patient)). One TMA had only 1 replica and two TMAs had three replicas. Based on the H&E analysis (hematoxylin and eosin) (FIG. 3) (6,326): 3,978 cores were evaluable (63%) and 2,348 were nonevaluable.\nFor the FISH assay, there were 2,067 FISH evaluable cores (56%). […] 567 patients were nonevaluable by FISH in any of the 4 replicas (32%).\nWith regard to molecular variables, for FISH analysis: MAF copy number: numerical and categorical (+/−cut-off>=2.5) variable; % of nucleic MAF amplified (MAF CN>2):numberical+categorical (cut-off TBD). For the IHC analysis: IHC H-Score: numerical+categorical (cut-off>=200), IHC OD: numerical+categorical (cut-off tBD). The following clinical variables were analyzed: disease-free survival (DFS), invasive disease-free survival (IDFS), overall survival (OS), first recurrence in bone, bone recurrence at any time, time to first DFS event in bone, time to first DFS event not in bone, response to zoledronic acid treatment.\nIn analyzing the MAF FISH prognostic value, the patients from the control and treatment arms were pooled for the initial analysis. Optimized cut-offs for each variable to be analyzed were used when indicated. Death as a competing event was used in time to bone metastasis, anytime. The following clinical variables were analyzed: time to bone metastasis (anytime), time to bone metastasis (as first event), IDFS (including ipsilateral invasive breast tumor recurrence, regional invasive breast cancer recurrence, metastatic disease-breast cancer, death attributable to any cause, including breast cancer, contralateral invasive breast cancer, second primary non-breast invasive cancer), and overall survival.\nThe control and zoledronic acid treatment arms from the AZURE study described in Example 1 were evaluated to determine the effect of zoledronic acid treatment on MAF-stratified patients."}, "[2]": {"test_system": "patients with invasive stage II or III breast cancer (AZURE trial)", "assay": "AZURE trial, effect of MAF amplification on treatment outcomes with adjuvant zoledronic acid (Example 3)", "format": "in vivo, human", "description": "3,360 patients from 174 centers worldwide were recruited to the AZURE trial between Sep. 4, 2003, and Feb. 16, 2006. Eligible patients had histologically confirmed invasive stage II or III breast cancer of any subtype, with either pathologically involved axillary lymph node metastasis or a T3 or T4 primary tumor treated with curative intent and complete resection of the primary tumor (or planned resection if patients were being treated with neoadjuvant chemotherapy). Other inclusion criteria were age 18 years or older, Karnofsky performance status score 80 or more, and not being pregnant or breastfeeding. Patients were excluded if they had clinical or imaging evidence of distant metastases, current or recent (<1 year) use of bisphosphonates, or pre-existing bone disease likely to require bone-targeted treatment. All patients gave written informed consent. In the UK, patients also provided voluntary specific consent for use of biological materials (primary tumor and blood samples). Before randomization, patients underwent hematological, renal, hepatic function, and staging imaging tests according to institutional protocols. Those confirmed to be eligible were randomly assigned (1:1) to standard adjuvant systemic treatment alone or with zoledronic acid from a central computer-generated schedule held at the Clinical Trials Research Unit, University of Leeds, Leeds, UK. A minimization process that took into account the number of involved axillary lymph nodes, clinical tumor stage, estrogen receptor status, type and timing of systemic therapy, menopausal status, statin use, and treating center was used.\nPatients received standard systemic therapy with (neo-) adjuvant chemotherapy, endocrine therapy, or both, alone (control group) or with 4 mg zoledronic acid given intravenously every 3-4 weeks for the first six doses, every 3 months for eight doses, and every 6 months for five doses to complete 5 years of treatment (zoledronic acid group). Oral calcium and vitamin D supplements were recommended for all patients in the first 6 months of treatment, and continued thereafter at the discretion of the treating physician. Adjuvant systemic treatments and locoregional radiotherapy were used in accordance with the standard protocols of each participating institution.\nThe follow-up schedule was similar in both study groups, and included clinical assessments, monitoring of adverse events, and hematological, renal, and hepatic function tests. Routine follow-up imaging was not mandated, but investigations were done for clinically suspected recurrence if deemed appropriate by the treating physician. Recurrence was defined by the date on which it was first suspected, to reduce the risk of ascertainment bias. 91% of recurrences were independently validated by either on-site or telephone based monitoring. After treatment with zoledronic acid was completed, patients were followed up annually for disease and safety endpoints.\n5 μm thick slices were cut from each TMA block and oriented to match the TMA map to allow identification of each tissue core. The slices were mounted onto Superfrost plus glass slides (Thermo Fisher Scientific, Waltham, MA, USA) and stained with hematoxylin and eosin to confirm the presence of assessable tumor. MAF amplification was assessed with the validated MAFTEST fluorescence in situ hybridization (FISH) with the MAF/D16Z3 probe (Inbiomotion, Barcelona, Spain). A central laboratory (Targos Molecular Pathology, Kassel, Germany) validated the analytical and diagnostic performance of the assay, established acceptance criteria, included appropriate quality controls for each assay, and performed the analyses masked to treatment assignment. Briefly, TMA sections were rehydrated in ethanol series, washed with water, and pretreated at 98° C. for 15 min. Samples were digested with pepsin in a Poseidon Tissue Digestion Kit (Kreatech, Amsterdam, Netherlands) for 30 min, dehydrated in ethanol series, and dried. […]"}, "[3]": {"settings": "zoledronic acid group (420 patients), median follow-up 84·6 months"}},
  "data": [
    {"smiles": "O=P(O)(O)C(O)(Cn1ccnc1)P(=O)(O)O", "note": "[zoledronic acid]", "values": [
      {"measurement": "HR, risk of bone metastasis (anytime), zoledronic acid treatment", "setting": "[1]; MAF FISH not positive patients, death as competing event, p=0.03", "value": 0.65},
      {"measurement": "HR, overall survival outcome, zoledronic acid treatment", "setting": "[1]; MAF negative post menopausal patients, 95% CI 0.31-1.01", "value": 0.56},
      {"measurement": "HR, DFS outcome, zoledronic acid treatment", "setting": "[1]; MAF negative post menopausal patients, 95% CI 0.33-0.95", "value": 0.56},
      {"measurement": "HR, bone metastatic event (anytime), zoledronic acid treatment", "setting": "[1]; MAF non-positive non-post-menopausal patients, p=0.08", "value": 0.66},
      {"measurement": "HR, bone metastatic event (anytime), zoledronic acid treatment", "setting": "[1]; MAF non-positive postmenopausal patients, limited number of events", "value": 0.63},
      {"measurement": "HR, bone metastatic event (anytime), zoledronic acid treatment", "setting": "[1]; MAF positive non-post-menopausal patients, p=0.045", "value": 2.44},
      {"measurement": "HR, risk of bone metastasis (anytime), zoledronic acid treatment", "setting": "[1]; MAF positive patients, death as competing event, non-significant, p=0.22", "value": 1.54},
      {"measurement": "HR, bone metastatic event (anytime), zoledronic acid treatment", "setting": "[1]; MAF positive postmenopausal patients, p=0.26, limited number of events", "value": 0.46},
      {"measurement": "HR, risk of bone metastasis at any time", "setting": "[1]; zoledronic acid arm, MAF FISH not positive (<2.3) compared to MAF FISH positive, death as competing event, p=0.01", "value": 0.52},
      {"measurement": "HR, time to recurrence (invasive disease)", "setting": "[1]; zoledronic acid treatment arm, by MAF FISH status (positive >=2.2), multivariate analysis, p<0.001", "value": 0.52},
      {"measurement": "effect on extraskeletal recurrence", "setting": "[2]; MAF-negative tumors, nonpostmenopausal at start of treatment", "value": "No effect"},
      {"measurement": "patients who died", "setting": "[2]; MAF-negative tumors, zoledronic acid group (321 patients)", "value": 18, "unit": "%"},
      {"measurement": "number of events, invasive-disease-free survival", "setting": "[2]; MAF-negative, non-postmenopausal zoledronic acid group (216 patients)", "value": "216 (61)"},
      {"measurement": "number of events, invasive-disease-free survival", "setting": "[2]; MAF-negative, postmenopausal zoledronic acid group (105 patients)", "value": "105 (29)"},
      {"measurement": "patients who died", "setting": "[2]; MAF-positive tumors, non-postmenopausal at start of treatment, zoledronic acid group (66 patients)", "value": 36, "unit": "%"},
      {"measurement": "patients who died", "setting": "[2]; MAF-positive tumors, postmenopausal, zoledronic acid group (33 patients)", "value": 30, "unit": "%"},
      {"measurement": "patients who died", "setting": "[2]; MAF-positive tumors, zoledronic acid group (99 patients)", "value": 34, "unit": "%"},
      {"measurement": "number of events, invasive-disease-free survival", "setting": "[2]; MAF-positive, non-postmenopausal zoledronic acid group (66 patients)", "value": "66 (33)"},
      {"measurement": "number of events, invasive-disease-free survival", "setting": "[2]; MAF-positive, postmenopausal zoledronic acid group (33 patients)", "value": "33 (12)"},
      {"measurement": "patients with an extraskeletal invasive-disease-free survival event", "setting": "[2]; zoledronic acid group", "value": 98},
      {"measurement": "patients who had died", "setting": "[2]; [3]", "value": 91},
      {"measurement": "patients with a first event in bone", "setting": "[2]; [3]", "value": 21},
      {"measurement": "patients with an invasive-disease-free survival event", "setting": "[2]; [3]", "value": 135},
      {"measurement": "number of events, invasive-disease-free survival", "setting": "[2]; zoledronic acid group, <50 years, MAF-negative (142 patients)", "value": 41},
      {"measurement": "number of events, invasive-disease-free survival", "setting": "[2]; zoledronic acid group, <50 years, MAF-positive (44 patients)", "value": 23},
      {"measurement": "number of events, invasive-disease-free survival", "setting": "[2]; zoledronic acid group, ≥50 years, MAF-negative (179 patients)", "value": 49},
      {"measurement": "number of events, invasive-disease-free survival", "setting": "[2]; zoledronic acid group, ≥50 years, MAF-positive (55 patients)", "value": 22}
    ]}
  ]
}
